Experiments:
NaS1 = molecular target: T1, NaS1 (Homo sapiens, UniProt Q9BZW2); assay: cryo-EM structure (IN/IN […] Å, IN/OUT […] Å); assay type: binding; conditions: substrate site; Na+ bound at Na1 in IN/IN
T1 construct: gene SLC13A1; full length, N-terminal FLAG tag, HEK293F membranes, purified in GDN, homodimer
T1 sequence (Q9BZW2 1-595): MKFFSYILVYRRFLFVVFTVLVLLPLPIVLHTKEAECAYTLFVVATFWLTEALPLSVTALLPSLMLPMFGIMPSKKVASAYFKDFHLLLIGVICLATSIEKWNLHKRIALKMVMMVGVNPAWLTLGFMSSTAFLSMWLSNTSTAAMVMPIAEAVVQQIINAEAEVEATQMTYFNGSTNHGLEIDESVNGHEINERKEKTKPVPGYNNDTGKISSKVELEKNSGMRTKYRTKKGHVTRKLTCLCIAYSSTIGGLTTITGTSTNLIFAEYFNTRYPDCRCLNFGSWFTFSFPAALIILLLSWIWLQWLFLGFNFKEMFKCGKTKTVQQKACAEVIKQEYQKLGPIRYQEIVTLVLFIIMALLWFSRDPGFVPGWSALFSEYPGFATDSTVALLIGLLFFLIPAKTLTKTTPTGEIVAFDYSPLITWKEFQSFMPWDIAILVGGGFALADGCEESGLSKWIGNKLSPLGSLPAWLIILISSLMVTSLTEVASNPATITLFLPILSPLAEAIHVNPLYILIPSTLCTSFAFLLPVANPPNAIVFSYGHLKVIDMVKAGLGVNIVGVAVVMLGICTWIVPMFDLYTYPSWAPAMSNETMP

NaDC1 [1] = molecular target: T2, NaDC1 (Homo sapiens, UniProt Q13183, I550V); assay: cryo-EM structure ([…] Å); assay type: binding; conditions: 400 μM ACA; allosteric site of TM2, L10, TM11, TM6a
T2 construct: gene SLC13A2; full length, homodimer; N-terminal FLAG purified from HEK293F (structures, natural variant I550V); GFP and FLAG tagged in HEK293T for currents
T2 sequence (Q13183 1-592 I550V): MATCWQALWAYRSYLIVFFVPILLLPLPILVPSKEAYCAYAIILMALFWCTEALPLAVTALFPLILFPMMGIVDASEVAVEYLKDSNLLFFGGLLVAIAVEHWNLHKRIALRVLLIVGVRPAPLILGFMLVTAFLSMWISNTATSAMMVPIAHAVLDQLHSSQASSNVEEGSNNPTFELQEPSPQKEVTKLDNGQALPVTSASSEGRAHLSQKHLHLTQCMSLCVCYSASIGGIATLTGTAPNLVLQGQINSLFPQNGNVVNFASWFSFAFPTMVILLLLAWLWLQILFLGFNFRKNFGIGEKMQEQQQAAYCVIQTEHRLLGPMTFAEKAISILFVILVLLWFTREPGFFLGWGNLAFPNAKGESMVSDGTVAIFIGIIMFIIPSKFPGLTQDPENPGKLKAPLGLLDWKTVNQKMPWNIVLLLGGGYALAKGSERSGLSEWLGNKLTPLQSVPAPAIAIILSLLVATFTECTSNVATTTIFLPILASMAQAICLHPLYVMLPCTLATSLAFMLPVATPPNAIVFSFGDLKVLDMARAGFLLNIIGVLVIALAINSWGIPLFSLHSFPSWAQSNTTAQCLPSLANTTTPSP

NaDC1 [2] = molecular target: T3, NaDC1 (Homo sapiens, UniProt Q13183); assay: whole-cell patch clamp, transfected HEK293T; assay type: cell-based; parameters: gene SLC13A2; full length, homodimer; GFP and FLAG tagged in HEK293T for currents; conditions: citrate-induced current; reversible on washout
T3 sequence (Q13183 1-592): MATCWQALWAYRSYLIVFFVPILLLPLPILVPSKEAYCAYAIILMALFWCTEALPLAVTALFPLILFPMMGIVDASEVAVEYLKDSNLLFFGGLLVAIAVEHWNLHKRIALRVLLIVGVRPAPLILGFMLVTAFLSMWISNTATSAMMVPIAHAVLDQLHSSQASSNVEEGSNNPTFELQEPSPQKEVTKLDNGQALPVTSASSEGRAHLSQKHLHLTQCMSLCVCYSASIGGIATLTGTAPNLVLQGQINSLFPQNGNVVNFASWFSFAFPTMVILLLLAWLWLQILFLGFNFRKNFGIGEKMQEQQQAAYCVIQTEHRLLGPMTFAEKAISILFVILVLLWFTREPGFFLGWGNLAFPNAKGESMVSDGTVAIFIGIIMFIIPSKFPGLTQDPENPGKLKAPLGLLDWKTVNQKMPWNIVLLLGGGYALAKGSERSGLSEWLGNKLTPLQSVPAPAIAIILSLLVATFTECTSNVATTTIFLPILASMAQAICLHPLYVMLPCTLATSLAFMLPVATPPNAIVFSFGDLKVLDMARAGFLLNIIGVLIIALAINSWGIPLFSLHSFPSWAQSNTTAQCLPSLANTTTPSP

[3] = molecular target: the molecule itself; assay: cryo-EM structure; single-particle cryo-EM of purified NaDC1 in 20 mM Hepes pH 7.4, 150 mM NaCl, 0.02% GDN; apo, with 10 mM sodium citrate, or with 400 uM ACA; OUT/OUT dimer
[4] = molecular target: the molecule itself; assay: cryo-EM structure; single-particle cryo-EM of purified NaS1 in 25 mM tris pH 8.0, 150 mM NaCl, 0.01% GDN; apo and sulfate-bound; IN/IN and IN/OUT dimers

O=S(=O)(O)O [sulfate]
cryo-EM structure (IN/IN 3.1 Å, IN/OUT 3.2 Å) (NaS1): there is obvious sulfate density around the classical substrate binding pocket of NaS1_sulfate_IN/IN

CCCCCc1ccc(/C=C/C(=O)Nc2ccccc2C(=O)O)cc1 [ACA]
cryo-EM structure (3.3 Å) (NaDC1 [1]): the cryo-EM structure of NaDC1 bound with ACA was solved
whole-cell patch clamp, transfected HEK293T (NaDC1 [2]): A significant decrease in citrate-induced current was detected when ACA was added

B1: human NaDC1 (SLC13A2), sodium ion-dicarboxylate cotransporter 1, natural variant I550V (natural protein, UniProt Q13183-1 1-592, looked up)
chain: MATCWQALWAYRSYLIVFFVPILLLPLPILVPSKEAYCAYAIILMALFWCTEALPLAVTALFPLILFPMMGIVDASEVAVEYLKDSNLLFFGGLLVAIAVEHWNLHKRIALRVLLIVGVRPAPLILGFMLVTAFLSMWISNTATSAMMVPIAHAVLDQLHSSQASSNVEEGSNNPTFELQEPSPQKEVTKLDNGQALPVTSASSEGRAHLSQKHLHLTQCMSLCVCYSASIGGIATLTGTAPNLVLQGQINSLFPQNGNVVNFASWFSFAFPTMVILLLLAWLWLQILFLGFNFRKNFGIGEKMQEQQQAAYCVIQTEHRLLGPMTFAEKAISILFVILVLLWFTREPGFFLGWGNLAFPNAKGESMVSDGTVAIFIGIIMFIIPSKFPGLTQDPENPGKLKAPLGLLDWKTVNQKMPWNIVLLLGGGYALAKGSERSGLSEWLGNKLTPLQSVPAPAIAIILSLLVATFTECTSNVATTTIFLPILASMAQAICLHPLYVMLPCTLATSLAFMLPVATPPNAIVFSFGDLKVLDMARAGFLLNIIGVLVIALAINSWGIPLFSLHSFPSWAQSNTTAQCLPSLANTTTPSP
notes: full-length human SLC13A2 (NaDC1), NP_003975.1, UniProtKB Q13183, with the natural variant I550V that was used to determine the structures; Homodimer in the cryo-EM structures (OUT/OUT; No removal of the FLAG tag is described; the protein was captured on anti-FLAG resin and eluted with FLAG peptide; also called NaDC1_apo; NaDC1_citrate; source: extracted in DDM/CHS, exchanged to GDN); not shown: …
binding result [3]: binds

B2: human NaS1 (SLC13A1), sodium ion-sulfate cotransporter 1 (natural protein, UniProt Q9BZW2 1-595, looked up)
chain: MKFFSYILVYRRFLFVVFTVLVLLPLPIVLHTKEAECAYTLFVVATFWLTEALPLSVTALLPSLMLPMFGIMPSKKVASAYFKDFHLLLIGVICLATSIEKWNLHKRIALKMVMMVGVNPAWLTLGFMSSTAFLSMWLSNTSTAAMVMPIAEAVVQQIINAEAEVEATQMTYFNGSTNHGLEIDESVNGHEINERKEKTKPVPGYNNDTGKISSKVELEKNSGMRTKYRTKKGHVTRKLTCLCIAYSSTIGGLTTITGTSTNLIFAEYFNTRYPDCRCLNFGSWFTFSFPAALIILLLSWIWLQWLFLGFNFKEMFKCGKTKTVQQKACAEVIKQEYQKLGPIRYQEIVTLVLFIIMALLWFSRDPGFVPGWSALFSEYPGFATDSTVALLIGLLFFLIPAKTLTKTTPTGEIVAFDYSPLITWKEFQSFMPWDIAILVGGGFALADGCEESGLSKWIGNKLSPLGSLPAWLIILISSLMVTSLTEVASNPATITLFLPILSPLAEAIHVNPLYILIPSTLCTSFAFLLPVANPPNAIVFSYGHLKVIDMVKAGLGVNIVGVAVVMLGICTWIVPMFDLYTYPSWAPAMSNETMP
notes: full-length human SLC13A1 (NaS1), NP_071889.2, UniProtKB Q9BZW2; No removal of the FLAG tag is described; the protein was captured on anti-FLAG resin and eluted with FLAG peptide; not shown: FLAG, N-terminal, kept
binding result [4]: binds

— paper PMC10980263, “Cryo-EM structures of the human NaS1 and NaDC1 transporters revealed the elevator transport and allosteric regulation mechanism” (Science Advances, 2024)
